Where two headings read alike, the source gives them in different places.
Key:
Type in all cases: physicochemical
[1] = Phase stability by XRPD after storage at 40° C. and 75% relative humidity for one week; conditions: solid form by low resolution XRPD after one week
Protocol: Condition 2 (Low Resolution)
X-Ray Powder Diffraction patterns were also collected on a Bruker D8 diffractometer using Cu K[…] radiation (40 kV, 40 mA), θ-2θ goniometer, and divergence of V4 and receiving slits, a Ge monochromator and a Lynxeye detector. The instrument is performance checked using a certified Corundum standard (NIST 1976). The software used for data collection was Diffrac Plus XRD Commander v2.5.0 and the data were analysed and presented using Diffrac Plus EVA v 11.0.0.2 or v 13.0.0.2. Samples were run under ambient conditions as flat plate specimens using powder as received. Approximately 15 mg of the sample was gently packed into a cavity cut into polished, zerobackground (510) silicon wafer. The sample was rotated in its own plane during analysis. The details of the data collection are:
The samples which had been prepared for the collection of low resolution XRPD traces were placed in a chamber maintained at 40° C. and 75% relative humidity. After one week the samples were reanalysed by low resolution XRPD (Condition 2), to check for phase changes. It can be seen that no phase change has occurred, and that citrate salts of the invention are stable for at least one week under these conditions.

[2] = Thermogravimetric Analysis (TGA)
Protocol: Thermogravimetric Analysis (TGA) data were collected on a Mettler TGA/SDTA 851e equipped with a 34 position autosampler. The instrument was temperature calibrated using certified indium. Typically 5-30 mg of each sample was loaded onto a pre-weighed aluminium crucible and was heated at 10° C.min^−1 from ambient temperature to 350° C. A nitrogen purge at 50 ml.min^−1 was maintained over the sample. The instrument control and data analysis software was STARe v9.10.

[3] = Differential Scanning Calorimetry (DSC); conditions: heated at 10° C.min^−1
Protocol: Differential Scanning Calorimetry (DSC) data were collected on a Mettler DSC 823e equipped with a 34 position auto-sampler. The instrument was calibrated for energy and temperature using certified indium. Typically 0.5-3 mg of each sample, in a pin-holed aluminium pan, was heated at 10° C.min^−1 from 25° C. to 350° C. A nitrogen purge at 50 ml.min^−1 was maintained over the sample. The instrument control and data analysis software was STARe v9.10.

[4] = Solubility assessment (solvent added in 10 volume aliquots); conditions: thermodynamic from solid, read-out: Solubility assessment observation
Protocol: For each solvent investigated, approximately 8 mg of compound 1 was weighed into an 8 ml screw top glass vial. The solvent was added in 10 volume aliquots and the mixture sonicated and warmed (with a hot-air gun) to encourage dissolution. If dissolution was not achieved after the addition of 100 volumes of solvent, a further 100 volumes was added.

Structure (SMILES): C1=C2COC/C=C/COCc3cc(ccc3OCCN3CCCC3)Nc3nccc(n3)C(=C1)O2 [Batch 5]
- Phase Stability 1 wk @ 40° C./75% RH [1]: Crystalline Form 1
- Thermogravimetric Analysis weight change ([2]; 160 to 250° C.): −21% w/w 160 to 250 °C
- Thermogravimetric Analysis weight change ([2]; ambient to 160° C.): −0.4% w/w ambient to
- Differential Scanning Calorimetry complex endotherm onset (significant thermal event) [3]: onset 178 °C
- solubility ([4]; IPA, organic solvent or mixture, IPA, 10 vols): < 100 mg/mL
- solubility ([4]; IPA, organic solvent or mixture, IPA, 20 vols): < 50 mg/mL
- solubility ([4]; IPA, organic solvent or mixture, IPA, 30 vols): < 33.3 mg/mL
- solubility ([4]; IPA, organic solvent or mixture, IPA, 40 vols): < 25 mg/mL
- solubility ([4]; IPA, organic solvent or mixture, IPA, 60 vols): < 16.7 mg/mL
- solubility ([4]; IPA, organic solvent or mixture, IPA, 80 vols): < 12.5 mg/mL
- solubility ([4]; IPA, organic solvent or mixture, IPA, 100 vols): < 10 mg/mL
- solubility ([4]; IPA, organic solvent or mixture, IPA, 200 vols): < 5 mg/mL
- solubility ([4]; MEK, organic solvent or mixture, MEK, 10 vols): < 100 mg/mL
- solubility ([4]; MEK, organic solvent or mixture, MEK, 20 vols): < 50 mg/mL
- solubility ([4]; MEK, organic solvent or mixture, MEK, 30 vols): < 33.3 mg/mL
- solubility ([4]; MEK, organic solvent or mixture, MEK, 40 vols): < 25 mg/mL
- solubility ([4]; MEK, organic solvent or mixture, MEK, 50 vols): < 20 mg/mL
- solubility ([4]; MEK, organic solvent or mixture, MEK, 60 vols): < 16.7 mg/mL
- solubility ([4]; MEK, organic solvent or mixture, MEK, 80 vols): < 12.5 mg/mL
- solubility ([4]; MEK, organic solvent or mixture, MEK, 100 vols): < 10 mg/mL
- solubility ([4]; MEK, organic solvent or mixture, MEK, 200 vols): < 5 mg/mL
- solubility ([4]; THF, organic solvent or mixture, THF, 10 vols): < 100 mg/mL
- solubility ([4]; THF, organic solvent or mixture, THF, 20 vols): < 50 mg/mL
- solubility ([4]; THF, organic solvent or mixture, THF, 30 vols): < 33.3 mg/mL
- solubility ([4]; THF, organic solvent or mixture, THF, 40 vols): < 25 mg/mL
- solubility ([4]; THF, organic solvent or mixture, THF, 60 vols): < 16.7 mg/mL
- solubility ([4]; THF, organic solvent or mixture, THF, 80 vols): < 12.5 mg/mL
- solubility ([4]; THF, organic solvent or mixture, THF, 100 vols): < 10 mg/mL
- solubility ([4]; THF, organic solvent or mixture, THF, 200 vols): < 5 mg/mL
- solubility ([4]; acetone, organic solvent or mixture, Acetone, 10 vols): < 100 mg/mL
- solubility ([4]; acetone, organic solvent or mixture, Acetone, 20 vols): < 50 mg/mL
- solubility ([4]; acetone, organic solvent or mixture, Acetone, 40 vols): < 25 mg/mL
- solubility ([4]; acetone, organic solvent or mixture, Acetone, 60 vols): < 16.7 mg/mL
- solubility ([4]; acetone, organic solvent or mixture, Acetone, 80 vols): < 12.5 mg/mL
- solubility ([4]; acetone, organic solvent or mixture, Acetone, 100 vols): < 10 mg/mL
- solubility ([4]; acetone, organic solvent or mixture, Acetone, 200 vols): < 5 mg/mL
- solubility ([4]; acetonitrile, organic solvent or mixture, Acetonitrile, 10 vols): < 100 mg/mL
- solubility ([4]; acetonitrile, organic solvent or mixture, Acetonitrile, 20 vols): < 50 mg/mL
- solubility ([4]; acetonitrile, organic solvent or mixture, Acetonitrile, 30 vols): < 33.3 mg/mL
- solubility ([4]; acetonitrile, organic solvent or mixture, Acetonitrile, 40 vols): < 25 mg/mL
- solubility ([4]; acetonitrile, organic solvent or mixture, Acetonitrile, 60 vols): < 16.7 mg/mL
- solubility ([4]; acetonitrile, organic solvent or mixture, Acetonitrile, 80 vols): < 12.5 mg/mL
- solubility ([4]; acetonitrile, organic solvent or mixture, Acetonitrile, 100 vols): < 10 mg/mL
- solubility ([4]; acetonitrile, organic solvent or mixture, Acetonitrile, 200 vols): < 5 mg/mL
- solubility ([4]; ethanol, organic solvent or mixture, Ethanol, 10 vols): < 100 mg/mL
- solubility ([4]; ethanol, organic solvent or mixture, Ethanol, 20 vols): < 50 mg/mL
- solubility ([4]; ethanol, organic solvent or mixture, Ethanol, 30 vols): < 33.3 mg/mL
- solubility ([4]; ethanol, organic solvent or mixture, Ethanol, 40 vols): < 25 mg/mL
- solubility ([4]; ethanol, organic solvent or mixture, Ethanol, 60 vols): < 16.7 mg/mL
- solubility ([4]; ethanol, organic solvent or mixture, Ethanol, 80 vols): < 12.5 mg/mL
- solubility ([4]; ethanol, organic solvent or mixture, Ethanol, 100 vols): < 10 mg/mL
- solubility ([4]; ethanol, organic solvent or mixture, Ethanol, 200 vols): < 5 mg/mL
- solubility ([4]; water, Water, 10 vols): > 100 mg/mL
